Measurements: patent US10472347B2, “Aminopyrazine compounds with A2A antagonist properties” (Merck Sharp & Dohme Corp., priority 2014, dated 2019)

target: T1, human A2a receptor (Homo sapiens, UniProt P29274); assay: A2a competition binding assay, Scintillation Proximity technology; details: membranes from HEK293 cells expressing human A2a receptor; Ki by Cheng-Prusoff equation
T1 construct: purchased Perkin-Elmer RBHA2AM400UA; host or cells: HEK293 cells (membranes)
Method in brief: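 SPA competition: 0.5 nM tritiated pyrazolotriazolopyrimidine ligand displaced by compound at 3000 to 0.15 nM, 1 h room temperature, human A2a HEK293 membranes pretreated with adenosine deaminase, PBS/10 mM MgCl2 buffer. CGS15943 1 μM defined non-specific binding; EC50 converted to Ki via Cheng-Prusoff.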

T1 sequence (P29274 whole entry): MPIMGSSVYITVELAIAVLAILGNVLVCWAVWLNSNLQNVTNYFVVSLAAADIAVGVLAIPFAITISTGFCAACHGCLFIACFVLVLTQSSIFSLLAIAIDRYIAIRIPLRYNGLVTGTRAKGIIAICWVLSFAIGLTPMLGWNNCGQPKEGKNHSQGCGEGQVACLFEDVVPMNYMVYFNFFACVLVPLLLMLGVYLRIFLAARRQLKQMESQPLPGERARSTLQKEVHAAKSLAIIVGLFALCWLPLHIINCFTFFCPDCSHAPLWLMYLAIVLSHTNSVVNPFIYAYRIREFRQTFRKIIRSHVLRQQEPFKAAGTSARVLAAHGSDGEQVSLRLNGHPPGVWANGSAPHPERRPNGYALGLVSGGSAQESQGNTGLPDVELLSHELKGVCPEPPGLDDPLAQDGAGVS

Structure (SMILES)	Ki
Cc1nc(C(=O)NCc2cc(C(F)(F)F)cc(Cl)n2)c(N)nc1-c1ncco1 [Ex-54, 3-amino-N-{[6-chloro-4-(trifluoromethyl)pyridin-2-yl]methyl}-6-methyl-5-(1,3-oxazol-2-yl)pyrazine-2-carboxamide]	1.77 nM
Cc1nc(C(=O)NCc2ncccc2CO)c(N)nc1-c1ncco1 [Ex-225, 3-amino-N-{[3-(hydroxymethyl)pyridin-2-yl]methyl}-6-methyl-5-(1,3-oxazol-2-yl)pyrazine-2-carboxamide]	0.178 nM
Cc1nc(C(=O)N[C@H]2CC[C@H](C(F)(F)F)CC2)c(N)nc1-c1ncco1 [Ex-118, 3-amino-6-methyl-5-(1,3-oxaozl-2-yl)-N-[trans-4-(trifluoromethyl)cyclohexyl] pyrazine-2-carboxamide]	31.7 nM
Cc1nc(C(=O)NCc2ccc3ccccc3n2)c(N)nc1-c1ncco1 [Ex-33, 3-amino-6-methyl-5-(1,3-oxazol-2-yl)-N-(quinolin-2-ylmethyl)pyrazine-2-carboxamide]	2.8 nM
Cc1nc(C(=O)NC2CCCN(CC(F)(F)F)C2)c(N)nc1-c1ncco1 (stereo not shown) [Ex-116, 3-amino-6-methyl-5-(1,3-oxazol-2-yl)-N-[1-(2,2,2-trifluoroethyl)piperidin-3-yl]pyrazine-2-carboxamide]	21.4 nM
Nc1nc(-n2nccn2)c(Cl)nc1C(=O)NCc1cccc2ncccc12 [Ex-309, 3-amino-6-chloro-N-(quinolin-5-ylmethyl)-5-(2H-1,2,3-triazol-2-yl)pyrazine-2-carboxamide]	180 nM
Cc1nc(C(=O)NCc2nn(C)cc2C(F)F)c(N)nc1-c1ncco1 [Ex-194, 3-amino-N-{[4-(difluoromethyl)-1-methyl-1H-pyrazol-3-yl]methyl}-6-methyl-5-(1,3-oxazol-2-yl)pyrazine-2-carboxamide]	1.65 nM
Cc1nc(C(=O)NC2CCc3ccc(Cl)nc32)c(N)nc1-c1ncco1 (single isomer, unassigned) [Ex-245B, 3-amino-N-(2-chloro-6,7-dihydro-5H-cyclopenta[b]pyridin-7-yl)-6-methyl-5-(1,3-oxazol-2-yl)pyrazine-2-carboxamide]	4.39 nM
Cc1nc(C(=O)NCc2cc(C(F)F)cc(C(F)F)n2)c(N)nc1-c1ncco1 [Ex-63, 3-amino-N-{[4,6-bis(difluoromethyl)pyridin-2-yl]methyl}-6-methyl-5-(1,3-oxazol-2-yl)pyrazine-2-carboxamide]	2.52 nM
Cc1nc(C(=O)NCc2ncccc2CF)c(N)nc1-c1ncco1 [Ex-224, 3-amino-N-{[3-(fluoromethyl)pyridin-2-yl]methyl}-6-methyl-5-(1,3-oxazol-2-yl)pyrazine-2-carboxamide]	0.201 nM
Cc1nc(C(=O)NCc2ccc(C3CC3)cc2)c(N)nc1-c1ncco1 [Ex-134, 3-amino-N-(4-cyclopropylbenzyl)-6-methyl-5-(1,3-oxazol-2-yl)pyrazine-2-carboxamide]	3.39 nM
Cc1nc(C(=O)NCc2cccn2C)c(N)nc1-c1ncco1 [Ex-141, 3-amino-6-methyl-N-[(1-methyl-1H-pyrrol-2-yl)methyl]-5-(1,3-oxazol-2-yl)pyrazine-2-carboxamide]	0.391 nM
Cc1ccn2cc(CNC(=O)c3nc(C)c(-c4ncco4)nc3N)nc2c1 [Ex-111, 3-amino-6-methyl-N-[(7-methylimidazo[1,2-a]pyridin-2-yl)methyl]-5-(1,3-oxazol-2-yl)pyrazine-2-carboxamide]	82.2 nM
Cc1cccnc1CNC(=O)c1nc(Cl)c(-n2cccn2)nc1N [Ex-334, 3-amino-6-chloro-N-[(3-methylpyridin-2-yl)methyl]-5-(1H-pyrazol-1-yl)pyrazine-2-carboxamide]	13.7 nM
Cc1nc(C(=O)NCc2ccc(F)cc2F)c(N)nc1-c1cnco1 [Ex-253, 3-amino-N-(2,4-difluorobenzyl)-6-methyl-5-(1,3-oxazol-5-yl)pyrazine-2-carboxamide]	8.57 nM
Cc1nc(C(=O)N[C@H]2COc3ccccc32)c(N)nc1-c1ncco1 [Ex-147, 3-amino-N-[(3R)-2,3-dihydro-1-benzofuran-3-yl]-6-methyl-5-(1,3-oxazol-2-yl)pyrazine-2-carboxamide]	0.601 nM
